Data published in publication PMC7527816, “Molecular basis for the bifunctional Uba4–Urm1 sulfur‐relay system in tRNA thiolation and ubiquitin‐like conjugation” (The EMBO Journal, 2020).
Substitutions are numbered along the chain they refer to. Names and notes keep the numbering of the source.

Legend:
CtUba4-CtUrm1 [1] = target: T1, CtUba4-CtUrm1 (Thermochaetoides thermophila, UniProt G0SC54); assay: GST pull-down of CtUba4 with GST-CtUrm1 (nucleotide-stabilised complex); type: binding; conditions: 1 mM nucleotide, 2 mM MgCl2, pH 6.0, 37 °C
T1 construct: gene uba4; full-length CtUba4 (1-444) plus CtUrm1, both from E. coli, tags TEV-cleaved (GST kept on CtUrm1 in pull-down); with Ubiquitin-related modifier 1

CtUba4 (full length) = target: T2, CtUba4 (full length) (Thermochaetoides thermophila, UniProt G0SC54); assay: thermal shift assay (SYPRO Orange); type: binding; conditions: 1 mM AMP, 2 mM MgCl2, 2 mM DTT, pH 7.5
T2 construct: gene uba4; full length aa 1-444, codon-optimised, E. coli BL21(DE3) pRARE, His6 or His6-GST tag TEV-cleaved, homodimer

CtUba4 AD = target: T3, CtUba4 AD (Thermochaetoides thermophila, UniProt G0SC54); assay: thermal shift assay (SYPRO Orange); type: binding; conditions: 1 mM AMP, 2 mM MgCl2, 2 mM DTT, pH 7.5
T3 construct: gene uba4; adenylation domain aa 1-290, E. coli, His6-GST tag TEV-cleaved, dimer

[2] = target: T4, ADlinker 1-321 (with CtUrm1) (Thermochaetoides thermophila, UniProt G0SC54); assay: pyrophosphate release (fluorometric kit); Malachite Green phosphate; type: biochemical; conditions: 20 μM ATP, CtUrm1 7.5 μM, 0.5 mM MgCl2, pH 6.0, 37 °C
T4 construct: gene uba4; adenylation domain plus complete linker, aa 1-321, E. coli; assayed with CtUrm1; with Ubiquitin-related modifier 1
T4 sequence (G0SC54 1-321): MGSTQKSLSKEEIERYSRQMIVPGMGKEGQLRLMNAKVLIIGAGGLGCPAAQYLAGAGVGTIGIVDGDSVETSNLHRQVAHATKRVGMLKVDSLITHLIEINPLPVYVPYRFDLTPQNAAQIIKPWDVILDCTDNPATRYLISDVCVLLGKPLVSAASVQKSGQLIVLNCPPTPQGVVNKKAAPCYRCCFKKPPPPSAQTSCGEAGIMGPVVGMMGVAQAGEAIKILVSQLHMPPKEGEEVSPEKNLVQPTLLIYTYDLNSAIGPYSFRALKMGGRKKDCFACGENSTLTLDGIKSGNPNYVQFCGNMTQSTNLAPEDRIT
T4 sequence (G0SE11 1-110 partner): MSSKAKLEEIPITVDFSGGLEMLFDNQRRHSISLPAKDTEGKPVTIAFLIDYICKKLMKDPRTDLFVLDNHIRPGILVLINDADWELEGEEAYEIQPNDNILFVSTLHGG

CtUba4-CtUrm1 [3] = target: T5, CtUba4-CtUrm1 (Thermochaetoides thermophila, UniProt G0SC54, N307A/M308A); assay: as above; type: biochemical; conditions: 20 μM ATP, CtUrm1 7.5 μM, 0.5 mM MgCl2, pH 6.0, 37 °C
T5 construct: gene uba4; full-length CtUba4 (1-444) plus CtUrm1, both from E. coli, tags TEV-cleaved (GST kept on CtUrm1 in pull-down); with Ubiquitin-related modifier 1

CtUba4-CtUrm1 [4] = target: T1, CtUba4-CtUrm1; assay: as above; type: biochemical; conditions: 20 μM ATP, CtUrm1 7.5 μM, 0.5 mM MgCl2, pH 6.0, 37 °C
[5] = target: the molecule itself; assay: SEC + SEC-MALS; SEC profiles and static light scattering (RALS/LALS) after Superdex 75 10/300 GL; 1 mg/ml; 20 mM Tris pH 7.5, 150 mM NaCl, 1 mM DTT
[6] = target: the molecule itself; assay: crystal structure; apo full-length CtUba4, no nucleotide; 50 mM HEPES pH 6.9-7.0, PEG 4000, 21°C; 2.2 Å
[7] = target: the molecule itself; assay: crystal structure; CtUba4 C202K, CtUrm1 and ATP (1.00:1.25:2.25) incubated in 100 mM MES pH 6.0, 100 mM NaCl, 2 mM MgCl2 at 37°C for 30 min, complex isolated on Superdex 200 Increase; crystals in 0.1 M HEPES pH 7.5, 20% PEG 3350; 3.15 Å

T5 sequence (G0SC54 entry or part of it N307A/M308A, one chain of several): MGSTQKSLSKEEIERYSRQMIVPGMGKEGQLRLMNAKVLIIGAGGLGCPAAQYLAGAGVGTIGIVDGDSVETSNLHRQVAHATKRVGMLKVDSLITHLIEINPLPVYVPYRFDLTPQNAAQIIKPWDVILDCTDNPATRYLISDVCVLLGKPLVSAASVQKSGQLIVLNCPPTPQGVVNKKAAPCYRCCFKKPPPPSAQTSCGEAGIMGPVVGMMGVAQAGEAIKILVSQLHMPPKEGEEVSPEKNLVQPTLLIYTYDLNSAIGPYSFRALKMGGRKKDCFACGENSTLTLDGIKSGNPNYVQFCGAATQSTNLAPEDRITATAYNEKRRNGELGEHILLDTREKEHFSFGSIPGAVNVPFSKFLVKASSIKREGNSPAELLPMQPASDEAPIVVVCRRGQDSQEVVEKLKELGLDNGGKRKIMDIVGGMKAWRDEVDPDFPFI

With `Nc1ncnc2c1ncn2[C@@H]1O[C@H](COP(=O)(O)OP(=O)(O)NP(=O)(O)O)[C@@H](O)[C@H]1O` [AMP-PNP] the “GST pull-down of CtUba4 with GST-CtUrm1 (nucleotide-stabilised complex)” value (CtUba4-CtUrm1 [1]) was “complex is stabilized most efficiently in the presence of ATP and AMP‐PNP”.

With `Nc1ncnc2c1ncn2[C@@H]1O[C@H](COP(=O)(O)O)[C@@H](O)[C@H]1O` [AMP] the melting temperature (CtUba4 (full length)) was “AMP increased the thermal stability of full‐length Uba4 and the AD alone” and the melting temperature (CtUba4 AD) was “AMP increased the thermal stability of full‐length Uba4 and the AD alone”.

In the case of `Nc1ncnc2c1ncn2[C@@H]1O[C@H](COP(=O)(O)OP(=O)(O)OP(=O)(O)O)[C@@H](O)[C@H]1O` [ATP], the “pyrophosphate release (fluorometric kit); Malachite Green phosphate” value (shortened to “pyrophosphate release (fluorometric kit)”) [2] is reported as “it stimulates the ATP hydrolysis activity of the AD in the presence of Urm1”, the “pyrophosphate release (fluorometric kit)” value (CtUba4-CtUrm1 [3]) is reported as “mutations of the linker residues Asn307 and Met308” and the “pyrophosphate release (fluorometric kit)” value (CtUba4-CtUrm1 [4]) is reported as “ATP hydrolysis capacity of CtUba4 WT and mutants in the presence of CtUrm1”.

B1: CtUba4 adenylation domain (1-290) (domain or fragment, Chaetomium thermophilum, UniProt G0SC54 1-290, looked up)
chain: MGSTQKSLSKEEIERYSRQMIVPGMGKEGQLRLMNAKVLIIGAGGLGCPAAQYLAGAGVGTIGIVDGDSVETSNLHRQVAHATKRVGMLKVDSLITHLIEINPLPVYVPYRFDLTPQNAAQIIKPWDVILDCTDNPATRYLISDVCVLLGKPLVSAASVQKSGQLIVLNCPPTPQGVVNKKAAPCYRCCFKKPPPPSAQTSCGEAGIMGPVVGMMGVAQAGEAIKILVSQLHMPPKEGEEVSPEKNLVQPTLLIYTYDLNSAIGPYSFRALKMGGRKKDCFACGENSTLT
notes: Uba4 of Chaetomium thermophilum, UniProt G0SC54, adenylation domain residues 1-290; source: E. coli BL21(DE3) pRARE, purified (Ni-NTA, TEV cleavage, SEC); not shown: His6, N-terminal, cleaved; GST, N-terminal, cleaved
For B1, the “stoichiometry N” value [5] was 2.

B2: CtUba4 rhodanese-like domain (319-444) (domain or fragment, Chaetomium thermophilum, UniProt G0SC54 319-444, looked up)
chain: RITATAYNEKRRNGELGEHILLDTREKEHFSFGSIPGAVNVPFSKFLVKASSIKREGNSPAELLPMQPASDEAPIVVVCRRGQDSQEVVEKLKELGLDNGGKRKIMDIVGGMKAWRDEVDPDFPFI
notes: Uba4 of Chaetomium thermophilum, UniProt G0SC54, rhodanese-like domain residues 319-444; also called CtUba4 RHD; RHD; source: E. coli BL21(DE3) pRARE, purified (Ni-NTA, TEV cleavage, SEC Superdex 75); not shown: His6, N-terminal, cleaved; GST, N-terminal, cleaved
B2 was tested, and the “stoichiometry N” value [5] was 2.

B3: Chaetomium thermophilum Uba4 (ubiquitin-like protein activator 4), full length, wild type (enzyme, UniProt G0SC54 1-444, looked up)
chain: MGSTQKSLSKEEIERYSRQMIVPGMGKEGQLRLMNAKVLIIGAGGLGCPAAQYLAGAGVGTIGIVDGDSVETSNLHRQVAHATKRVGMLKVDSLITHLIEINPLPVYVPYRFDLTPQNAAQIIKPWDVILDCTDNPATRYLISDVCVLLGKPLVSAASVQKSGQLIVLNCPPTPQGVVNKKAAPCYRCCFKKPPPPSAQTSCGEAGIMGPVVGMMGVAQAGEAIKILVSQLHMPPKEGEEVSPEKNLVQPTLLIYTYDLNSAIGPYSFRALKMGGRKKDCFACGENSTLTLDGIKSGNPNYVQFCGNMTQSTNLAPEDRITATAYNEKRRNGELGEHILLDTREKEHFSFGSIPGAVNVPFSKFLVKASSIKREGNSPAELLPMQPASDEAPIVVVCRRGQDSQEVVEKLKELGLDNGGKRKIMDIVGGMKAWRDEVDPDFPFI
notes: Uba4 of Chaetomium thermophilum, UniProt G0SC54, full length aa 1-444; Expressed from pETM30 (N-terminal His6 and GST) and pETM11 (N-terminal His6); tags cleaved with TEV; Codon-optimised gene; also called CtUba4; CtUba4 FL; source: E. coli BL21(DE3) pRARE, purified (Ni-NTA, TEV cleavage, second Ni-NTA, SEC Superdex 200); not shown: His6, N-terminal, cleaved
In the case of B3, the “stoichiometry N” value [6] is reported as 2.

B4: CtUba4 C202K, full length (enzyme, Chaetomium thermophilum, UniProt G0SC54 1-444, looked up)
chain: B3 chain with C202K
notes: Uba4 of Chaetomium thermophilum, UniProt G0SC54, full length aa 1-444 with C202K; With Urm1 and ATP the epsilon-amino group of Lys202 forms a non-hydrolysable iso-peptide bond with Gly111 of Urm1; The RHD is present in the crystals but has no density; source: E. coli BL21(DE3) pRARE, purified (Ni-NTA, TEV cleavage, SEC Superdex 200); not shown: His6, N-terminal, cleaved
With B4 the “stoichiometry N” value [7] was 2.
